Assay results from PMC11277489, “Novel Piperazine Derivatives of Vindoline as Anticancer Agents” (International Journal of Molecular Sciences, 2024).

Legend:
CCRF-CEM = assay: NCI60 one-dose screen (10 μM), Leukemia; assay type: cell-based; settings: Homo sapiens, 10 μM, Leukemia, read-out: Growth percent rate
HL-60(TB) = assay: NCI60 one-dose screen (10 μM), Leukemia; assay type: cell-based; settings: Homo sapiens; 10 μM; HL-60(TB), Leukemia; read-out: Growth percent rate
K-562 = assay: NCI60 one-dose screen (10 μM), Leukemia; assay type: cell-based; settings: Homo sapiens, K562; 10 μM; K-562, Leukemia; read-out: Growth percent rate
MOLT-4 = assay: NCI60 one-dose screen (10 μM), Leukemia; assay type: cell-based, human; settings: Homo sapiens; 10 μM; MOLT-4, Leukemia; read-out: Growth percent rate
RPMI-8226 = assay: NCI60 one-dose screen (10 μM), Leukemia; assay type: cell-based; settings: Homo sapiens; 10 μM; RPMI-8226, Leukemia; read-out: Growth percent rate
A549/ATCC = assay: NCI60 one-dose screen (10 μM), Non-small Cell Lung Cancer; assay type: cell-based; settings: Homo sapiens; 10 μM; A549/ATCC, Non-small Cell Lung Cancer; read-out: Growth percent rate
EKVX = assay: as above; assay type: cell-based; settings: Homo sapiens, 10 μM, Non-small Cell Lung Cancer, read-out: Growth percent rate
HOP-62 = assay: as above; assay type: cell-based; settings: Homo sapiens; 10 μM; HOP-62, Non-small Cell Lung Cancer; read-out: Growth percent rate
NCI-H23 = assay: as above; assay type: cell-based; settings: Homo sapiens; 10 μM; NCI-H23, Non-small Cell Lung Cancer; read-out: Growth percent rate
NCI-H322M = assay: as above; assay type: cell-based; settings: Homo sapiens, 10 μM, Non-small Cell Lung Cancer, read-out: Growth percent rate
NCI-H460 = assay: as above; assay type: cell-based; settings: Homo sapiens; 10 μM; NCI-H460, Non-small Cell Lung Cancer; read-out: Growth percent rate
NCI-H522 = assay: as above; assay type: cell-based; settings: Homo sapiens; 10 μM; NCI-H522, Non-small Cell Lung Cancer; read-out: Growth percent rate
HCC-2998 = assay: NCI60 one-dose screen (10 μM), Colon Cancer; assay type: cell-based; settings: Homo sapiens; 10 μM; HCC-2998, Colon Cancer; read-out: Growth percent rate
HCT-116 = assay: NCI60 one-dose screen (10 μM), Colon Cancer; assay type: cell-based; settings: Homo sapiens; 10 μM; HCT-116, Colon Cancer; read-out: Growth percent rate
HT29 = assay: NCI60 one-dose screen (10 μM), Colon Cancer; assay type: cell-based; settings: Homo sapiens, HT-29; 10 μM; HT29, Colon Cancer; read-out: Growth percent rate
KM12 = assay: NCI60 one-dose screen (10 μM), Colon Cancer; assay type: cell-based, human; settings: Homo sapiens; 10 μM; KM12, Colon Cancer; read-out: Growth percent rate
SW-620 = assay: NCI60 one-dose screen (10 μM), Colon Cancer; assay type: cell-based; settings: Homo sapiens; 10 μM; SW-620, Colon Cancer; read-out: Growth percent rate
SF-268 = assay: NCI60 one-dose screen (10 μM), CNS Cancer; assay type: cell-based; settings: Homo sapiens; 10 μM; SF-268, CNS Cancer; read-out: Growth percent rate
SF-295 = assay: NCI60 one-dose screen (10 μM), CNS Cancer; assay type: cell-based; settings: Homo sapiens; 10 μM; SF-295, CNS Cancer; read-out: Growth percent rate
SNB-19 = assay: NCI60 one-dose screen (10 μM), CNS Cancer; assay type: cell-based; settings: Homo sapiens; 10 μM; SNB-19, CNS Cancer; read-out: Growth percent rate
SNB-75 = assay: NCI60 one-dose screen (10 μM), CNS Cancer; assay type: cell-based, human; settings: Homo sapiens; 10 μM; SNB-75, CNS Cancer; read-out: Growth percent rate
U251 = assay: NCI60 one-dose screen (10 μM), CNS Cancer; assay type: cell-based; settings: Homo sapiens, U-251; 10 μM; U251, CNS Cancer; read-out: Growth percent rate
MALME-3M = assay: NCI60 one-dose screen (10 μM), Melanoma; assay type: cell-based; settings: Homo sapiens; 10 μM; MALME-3M, Melanoma; read-out: Growth percent rate
M14 = assay: NCI60 one-dose screen (10 μM), Melanoma; assay type: cell-based; settings: Homo sapiens; 10 μM; M14, Melanoma; read-out: Growth percent rate
MDA-MB-435 = assay: NCI60 one-dose screen (10 μM), Melanoma; assay type: cell-based; settings: Homo sapiens; 10 μM; MDA-MB-435, Melanoma; read-out: Growth percent rate
SK-MEL-2 = assay: NCI60 one-dose screen (10 μM), Melanoma; assay type: cell-based; settings: Homo sapiens; 10 μM; SK-MEL-2, Melanoma; read-out: Growth percent rate
SK-MEL-28 = assay: NCI60 one-dose screen (10 μM), Melanoma; assay type: cell-based; settings: Homo sapiens; 10 μM; SK-MEL-28, Melanoma; read-out: Growth percent rate
SK-MEL-5 = assay: NCI60 one-dose screen (10 μM), Melanoma; assay type: cell-based, human; settings: Homo sapiens; 10 μM; SK-MEL-5, Melanoma; read-out: Growth percent rate
UACC-257 = assay: NCI60 one-dose screen (10 μM), Melanoma; assay type: cell-based; settings: Homo sapiens; 10 μM; UACC-257, Melanoma; read-out: Growth percent rate
IGROV1 = assay: NCI60 one-dose screen (10 μM), Ovarian Cancer; assay type: cell-based; settings: Homo sapiens, IGROV-1; 10 μM; IGROV1, Ovarian Cancer; read-out: Growth percent rate
OVCAR-3 = assay: NCI60 one-dose screen (10 μM), Ovarian Cancer; assay type: cell-based; settings: Homo sapiens; 10 μM; OVCAR-3, Ovarian Cancer; read-out: Growth percent rate
OVCAR-4 = assay: NCI60 one-dose screen (10 μM), Ovarian Cancer; assay type: cell-based; settings: Homo sapiens; 10 μM; OVCAR-4, Ovarian Cancer; read-out: Growth percent rate
OVCAR-8 = assay: NCI60 one-dose screen (10 μM), Ovarian Cancer; assay type: cell-based; settings: Homo sapiens; 10 μM; OVCAR-8, Ovarian Cancer; read-out: Growth percent rate
786–0 = assay: NCI60 one-dose screen (10 μM), Renal Cancer; assay type: cell-based; settings: Homo sapiens; 10 μM; 786-0, Renal Cancer; read-out: Growth percent rate
A498 = assay: NCI60 one-dose screen (10 μM), Renal Cancer; assay type: cell-based; settings: Homo sapiens; 10 μM; A498, Renal Cancer; read-out: Growth percent rate
ACHN = assay: NCI60 one-dose screen (10 μM), Renal Cancer; assay type: cell-based; settings: Homo sapiens, 10 μM, Renal Cancer, read-out: Growth percent rate
CAKI-1 = assay: NCI60 one-dose screen (10 μM), Renal Cancer; assay type: cell-based; settings: Homo sapiens; 10 μM; CAKI-1, Renal Cancer; read-out: Growth percent rate
SN12C = assay: NCI60 one-dose screen (10 μM), Renal Cancer; assay type: cell-based; settings: Homo sapiens, 10 μM, Renal Cancer, read-out: Growth percent rate
TK-10 = assay: NCI60 one-dose screen (10 μM), Renal Cancer; assay type: cell-based; settings: Homo sapiens; 10 μM; TK-10, Renal Cancer; read-out: Growth percent rate
DU-145 = assay: NCI60 one-dose screen (10 μM), Prostate Cancer; assay type: cell-based; settings: Homo sapiens; 10 μM; DU-145, Prostate Cancer; read-out: Growth percent rate
MCF7 = assay: NCI60 one-dose screen (10 μM), Breast Cancer; assay type: cell-based; settings: Homo sapiens; 10 μM; MCF7, Breast Cancer; read-out: Growth percent rate
[1] = tested on: 60 human tumor cell lines (NCI60); assay: NCI60 one-dose screen (10 μM), whole panel; assay type: cell-based; settings: for activity at 10 µM: mean over 60 human cancer cell lines, read-out: Growth percent rate, Mean

SMILES: CC[C@]12C=CCN3CC[C@@]4(c5ccc(OC)cc5N(C)[C@H]4[C@@](O)(C(=O)OC)[C@@H]1OC(=O)CCCN1CCN(Cc4ccc(C(F)(F)F)cc4)CC1)[C@@H]32 [Compound 23]
- activity at 10 µM (CCRF-CEM): -63.1%
- activity at 10 µM (HL-60(TB)): -65.8%
- activity at 10 µM (K-562): -73.3%
- activity at 10 µM (MOLT-4): -68.5%
- activity at 10 µM (RPMI-8226): -58.3%
- activity at 10 µM (A549/ATCC): -67.8%
- activity at 10 µM (EKVX): -75.1%
- activity at 10 µM (HOP-62): -86.7%
- activity at 10 µM (NCI-H23): -71.3%
- activity at 10 µM (NCI-H322M): -48.2%
- activity at 10 µM (NCI-H460): -84.7%
- activity at 10 µM (NCI-H522): -59.3%
- activity at 10 µM (HCC-2998): -83.6%
- activity at 10 µM (HCT-116): -89.3%
- activity at 10 µM (HT29): -54.4%
- activity at 10 µM (KM12): -70.9%
- activity at 10 µM (SW-620): -87.1%
- activity at 10 µM (SF-268): -55.1%
- activity at 10 µM (SF-295): -86.7%
- activity at 10 µM (SNB-19): -89.1%
- activity at 10 µM (SNB-75): -68.8%
- activity at 10 µM (U251): -78.1%
- activity at 10 µM (MALME-3M): -95.2%
- activity at 10 µM (M14): -88.9%
- activity at 10 µM (MDA-MB-435): -95.3%
- activity at 10 µM (SK-MEL-2): -72.6%
- activity at 10 µM (SK-MEL-28): -94.8%
- activity at 10 µM (SK-MEL-5): -98.5%
- activity at 10 µM (UACC-257): -82.2%
- activity at 10 µM (IGROV1): -71%
- activity at 10 µM (OVCAR-3): -68.4%
- activity at 10 µM (OVCAR-4): -32.1%
- activity at 10 µM (OVCAR-8): -42%
- activity at 10 µM (786–0): -95.7%
- activity at 10 µM (A498): -93.9%
- activity at 10 µM (ACHN): -78.1%
- activity at 10 µM (CAKI-1): -78%
- activity at 10 µM (SN12C): -4.35%
- activity at 10 µM (TK-10): -81.7%
- activity at 10 µM (DU-145): -64.9%
- activity at 10 µM (MCF7): -74.3%
- growth rate ([1]; 10 μM one-dose, on almost all tested cancer types and cell lines, negative = lethality): < −60%
- activity at 10 µM [1]: -71.8%

SMILES: CC[C@]12C=CCN3CC[C@@]4(c5ccc(OC)cc5N(C)[C@H]4[C@@](O)(C(=O)OC)[C@@H]1OC(=O)CCCN1CCN(Cc4ccc(F)cc4)CC1)[C@@H]32 [Compound 24]
- activity at 10 µM (CCRF-CEM): 12.7%
- activity at 10 µM (HL-60(TB)): 7.68%
- activity at 10 µM (K-562): 0.4%
- activity at 10 µM (MOLT-4): 6.28%
- activity at 10 µM (RPMI-8226): 20.1%
- activity at 10 µM (A549/ATCC): 51.2%
- activity at 10 µM (EKVX): 40.3%
- activity at 10 µM (HOP-62): 70.1%
- activity at 10 µM (NCI-H23): 74.4%
- activity at 10 µM (NCI-H322M): 71.7%
- activity at 10 µM (NCI-H460): 30.6%
- activity at 10 µM (NCI-H522): 27.3%
- activity at 10 µM (HCC-2998): -62.4%
- activity at 10 µM (HCT-116): 24.1%
- activity at 10 µM (HT29): 1.44%
- activity at 10 µM (KM12): 45.7%
- activity at 10 µM (SW-620): 64.3%
- activity at 10 µM (SF-268): 42.5%
- activity at 10 µM (SF-295): 70.2%
- activity at 10 µM (SNB-19): 49.1%
- activity at 10 µM (SNB-75): -0.13%
- activity at 10 µM (U251): 40.3%
- activity at 10 µM (MALME-3M): -97.2%
- activity at 10 µM (M14): -77.9%
- activity at 10 µM (MDA-MB-435): 38.7%
- activity at 10 µM (SK-MEL-2): -26.1%
- activity at 10 µM (SK-MEL-28): -45.3%
- activity at 10 µM (SK-MEL-5): -98.3%
- activity at 10 µM (UACC-257): -72.7%
- activity at 10 µM (IGROV1): 25.1%
- activity at 10 µM (OVCAR-3): 50.6%
- activity at 10 µM (OVCAR-4): 33%
- activity at 10 µM (OVCAR-8): 66%
- activity at 10 µM (786–0): 31.4%
- activity at 10 µM (A498): 58.3%
- activity at 10 µM (ACHN): 33.7%
- activity at 10 µM (CAKI-1): 5.13%
- activity at 10 µM (SN12C): 43.9%
- activity at 10 µM (TK-10): 42.6%
- activity at 10 µM (DU-145): 39.5%
- activity at 10 µM (MCF7): 6.31%
- activity at 10 µM [1]: 20.4%
